Test results as given in ChEMBL document CHEMBL3885861, “Open TG-GATES”.

Species on record: Rattus norvegicus
Experiment: Open TG-GATES - Regimen: Daily Repeat
Type: toxicity, organism-based, Sprague-Dawley
Parameters: regimen Daily Repeat, gender Male, age 6 weeks
Settings: in vivo, po, 0 mg/kg, route gavage, dose level Control; for APTT / Bas / Eos / Fbg / Hb / Ht / Lym / MCH / MCHC / MCV / Mono / Neu / PT / Plat / RBC / Ret / WBC: tissue Blood; for KIDNEY_L / KIDNEY_R / KIDNEY_TOTAL: tissue Kidney; for LIVER: tissue Liver; for ALP / ALT / AST / BUN / CRE / Ca / DBIL / GLC / IP / K / LDH / Na / PL / RALB / TBIL / TC / TG / TP / gamma-GTP: tissue Plasma

Work on `Oc1ncnc2[nH]ncc12` [ALLOPURINOL] yielded a TERMINAL_BW (72 h, time 3 day) of 244.3 g, an APTT (72 h, time 3 day) of 16.6 s and a Bas (72 h, time 3 day) of 0%. It also gave an Eos (72 h, time 3 day) of 0.8%, a Fbg (72 h, time 3 day) of 237 mg/dL and a Hb (72 h, time 3 day) of 13.9 g/dL. The Ht (72 h, time 3 day) was 41.5%, the Lym (72 h, time 3 day) was 74.6% and the MCH (72 h, time 3 day) was 22.3 pg. For the same compound, the MCHC (72 h, time 3 day) was 33.3%, the MCV (72 h, time 3 day) was 66.7 fL and the Mono (72 h, time 3 day) was 11.6%. The Neu (72 h, time 3 day) was 12.8%, the PT (72 h, time 3 day) was 11.9 s and the Plat (72 h, time 3 day) was 93.5 x10_4/uL. For the same compound, the RBC (72 h, time 3 day) was 623.2 x10_4/ul, the Ret (72 h, time 3 day) was 7.7% and the WBC (72 h, time 3 day) was 127.2 x10_2/uL. It also gave a KIDNEY_L (72 h, time 3 day) of 1 g, a KIDNEY_R (72 h, time 3 day) of 1 g and a KIDNEY_TOTAL (72 h, time 3 day) of 2.1 g. The LIVER (72 h, time 3 day) was 12.2 g, the ALP (72 h, time 3 day) was 863.2 IU/L and the ALT (72 h, time 3 day) was 34.2 IU/L. The AST (72 h, time 3 day) was 58.2 IU/L, the BUN (72 h, time 3 day) was 18.2 mg/dL and the CRE (72 h, time 3 day) was 0.5 mg/dL. The Ca (72 h, time 3 day) was 11.4 mg/dL, the DBIL (72 h, time 3 day) was 0 mg/dL and the GLC (72 h, time 3 day) was 201.6 mg/dL. For the same compound, the IP (72 h, time 3 day) was 8.1 mg/dL, the K (72 h, time 3 day) was 4.9 meq/L and the LDH (72 h, time 3 day) was 84.6 IU/L. It also gave a Na (72 h, time 3 day) of 137.8 meq/L, a PL (72 h, time 3 day) of 174.6 mg/dL and an RALB (72 h, time 3 day) of 3.9 g/dL. For the same compound, the TBIL (72 h, time 3 day) was 0.2 mg/dL, the TC (72 h, time 3 day) was 87.8 mg/dL and the TG (72 h, time 3 day) was 130 mg/dL. It also gave a TP (72 h, time 3 day) of 6 g/dL, a gamma-GTP (72 h, time 3 day) of 1.2 IU/L and a TERMINAL_BW ([…], time 7 day) of 249.8 g. The TERMINAL_BW ([…], time 14 day) was 318.9 g, the TERMINAL_BW ([…], time 28 day) was 401.4 g and the APTT ([…], time 7 day) was 17.2 s. For the same compound, the Bas ([…], time 7 day) was 0%, the Eos ([…], time 7 day) was 1% and the Fbg ([…], time 7 day) was 242.2 mg/dL. For the same compound, the Hb ([…], time 7 day) was 15 g/dL, the Ht ([…], time 7 day) was 45.2% and the Lym ([…], time 7 day) was 77.8%. It also gave an MCH ([…], time 7 day) of 20.4 pg, an MCHC ([…], time 7 day) of 33.2% and an MCV ([…], time 7 day) of 61.4 fL. It also gave a Mono ([…], time 7 day) of 4.8%, a Neu ([…], time 7 day) of 16.8% and a PT ([…], time 7 day) of 12 s. It also gave a Plat ([…], time 7 day) of 118.1 x10_4/uL, an RBC ([…], time 7 day) of 737.4 x10_4/ul and a Ret ([…], time 7 day) of 4.5%. It also gave an APTT ([…], time 14 day) of 16.9 s, a Bas ([…], time 14 day) of 0% and an Eos ([…], time 14 day) of 1%. For the same compound, the Fbg ([…], time 14 day) was 227 mg/dL, the Hb ([…], time 14 day) was 14.5 g/dL and the Ht ([…], time 14 day) was 44%. The Lym ([…], time 14 day) was 76.4%, the MCH ([…], time 14 day) was 19.9 pg and the MCHC ([…], time 14 day) was 33%. The MCV ([…], time 14 day) was 60.5 fL, the Mono ([…], time 14 day) was 6% and the Neu ([…], time 14 day) was 16.8%. The PT ([…], time 14 day) was 11.9 s, the Plat ([…], time 14 day) was 97.7 x10_4/uL and the RBC ([…], time 14 day) was 728 x10_4/ul. For the same compound, the Ret ([…], time 14 day) was 3.7%, the APTT ([…], time 28 day) was 16.3 s and the Bas ([…], time 28 day) was 0%. The Eos ([…], time 28 day) was 1%, the Fbg ([…], time 28 day) was 230.6 mg/dL and the Hb ([…], time 28 day) was 14.8 g/dL. For the same compound, the Ht ([…], time 28 day) was 44.2%, the Lym ([…], time 28 day) was 80.8% and the MCH ([…], time 28 day) was 19.3 pg. For the same compound, the MCHC ([…], time 28 day) was 33.5%, the MCV ([…], time 28 day) was 57.6 fL and the Mono ([…], time 28 day) was 6.2%. The Neu ([…], time 28 day) was 11.8%, the PT ([…], time 28 day) was 12.3 s and the Plat ([…], time 28 day) was 109.3 x10_4/uL. The RBC ([…], time 28 day) was 766.8 x10_4/ul, the Ret ([…], time 28 day) was 3.5% and the WBC ([…], time 28 day) was 163 x10_2/uL. The KIDNEY_L ([…], time 7 day) was 1.1 g, the KIDNEY_R ([…], time 7 day) was 1.1 g and the KIDNEY_TOTAL ([…], time 7 day) was 2.1 g. It also gave a KIDNEY_L ([…], time 14 day) of 1.2 g, a KIDNEY_R ([…], time 14 day) of 1.2 g and a KIDNEY_TOTAL ([…], time 14 day) of 2.5 g. It also gave a KIDNEY_L ([…], time 28 day) of 1.4 g, a KIDNEY_R ([…], time 28 day) of 1.4 g and a KIDNEY_TOTAL ([…], time 28 day) of 2.8 g. The LIVER ([…], time 14 day) was 14.3 g, the LIVER ([…], time 28 day) was 16.2 g and the ALP ([…], time 7 day) was 874.8 IU/L. It also gave an ALT ([…], time 7 day) of 26 IU/L, an AST ([…], time 7 day) of 56.2 IU/L and a BUN ([…], time 7 day) of 22.4 mg/dL. For the same compound, the CRE ([…], time 7 day) was 0.5 mg/dL, the DBIL ([…], time 7 day) was 0.06 mg/dL and the GLC ([…], time 7 day) was 203 mg/dL. The IP ([…], time 7 day) was 7.7 mg/dL, the K ([…], time 7 day) was 4.6 meq/L and the LDH ([…], time 7 day) was 86.2 IU/L. For the same compound, the Na ([…], time 7 day) was 136.6 meq/L, the PL ([…], time 7 day) was 135.4 mg/dL and the RALB ([…], time 7 day) was 4 g/dL. For the same compound, the TBIL ([…], time 7 day) was 0.3 mg/dL, the TC ([…], time 7 day) was 68.2 mg/dL and the TG ([…], time 7 day) was 60.4 mg/dL. For the same compound, the TP ([…], time 7 day) was 6.2 g/dL, the gamma-GTP ([…], time 7 day) was 1.2 IU/L and the ALP ([…], time 14 day) was 710.4 IU/L. For the same compound, the ALT ([…], time 14 day) was 32 IU/L, the AST ([…], time 14 day) was 62.8 IU/L and the BUN ([…], time 14 day) was 17.8 mg/dL. The CRE ([…], time 14 day) was 0.6 mg/dL, the Ca ([…], time 14 day) was 10.9 mg/dL and the DBIL ([…], time 14 day) was 0.01 mg/dL. The GLC ([…], time 14 day) was 206.4 mg/dL, the IP ([…], time 14 day) was 7.9 mg/dL and the K ([…], time 14 day) was 4.3 meq/L. For the same compound, the LDH ([…], time 14 day) was 69.8 IU/L, the Na ([…], time 14 day) was 139.8 meq/L and the PL ([…], time 14 day) was 150 mg/dL. For the same compound, the RALB ([…], time 14 day) was 3.6 g/dL, the TBIL ([…], time 14 day) was 0.3 mg/dL and the TC ([…], time 14 day) was 70 mg/dL. It also gave a TG ([…], time 14 day) of 118 mg/dL, a TP ([…], time 14 day) of 6 g/dL and a gamma-GTP ([…], time 14 day) of 1.6 IU/L. It also gave an ALP ([…], time 28 day) of 602.4 IU/L, an ALT ([…], time 28 day) of 31.6 IU/L and an AST ([…], time 28 day) of 61.8 IU/L. It also gave a BUN ([…], time 28 day) of 20 mg/dL, a CRE ([…], time 28 day) of 0.4 mg/dL and a DBIL ([…], time 28 day) of 0.018 mg/dL. The GLC ([…], time 28 day) was 186 mg/dL, the IP ([…], time 28 day) was 6.5 mg/dL and the K ([…], time 28 day) was 4.7 meq/L. It also gave an LDH ([…], time 28 day) of 81 IU/L, a Na ([…], time 28 day) of 138.8 meq/L and a PL ([…], time 28 day) of 146.2 mg/dL. The RALB ([…], time 28 day) was 3.8 g/dL, the TBIL ([…], time 28 day) was 0.3 mg/dL and the TC ([…], time 28 day) was 67.2 mg/dL. For the same compound, the TG ([…], time 28 day) was 147.4 mg/dL, the TP ([…], time 28 day) was 6.2 g/dL and the gamma-GTP ([…], time 28 day) was 1.4 IU/L.
